Test results reported in patent US7087610B2, “Benzothiazole antiviral agents” (priority 2004, dated 2006).

Test system: single-round infectious reporter virus (HIV-1 envelope)
Experiment: HIV-1 single-round infectious luciferase reporter virus infection of HeLa CD4 cells
Type: cell-based
Details: Human immunodeficiency virus 1, HeLa, 72 h
Protocol: Cells: (virus production) human embryonic kidney cell line, 293, was propagated in Dulbecco's Modified Eagle Medium (Invitrogen, Carlsbad, Calif.) containing 10% fetal Bovine serum (FBS, Sigma, St. Louis, Mo.); (virus infection) human epithelial cell line, HeLa, expressing the HIV-1 receptor CD4 was propagated in Dulbecco's Modified Eagle Medium (Invitrogen, Carlsbad, Calif.) containing 10% fetal Bovine serum (FBS, Sigma, St. Louis, Mo.) and supplemented with 0.2 mg/mL Geneticin (Invitrogen, Carlsbad, Calif.).
Virus: single-round infectious reporter virus was produced by co-transfecting human embryonic kidney 293 cells with an HIV-1 envelope DNA expression vector and a proviral cDNA containing an envelope deletion mutation and the luciferase reporter gene inserted in place of HIV-1 nef sequences. Transfections were performed using lipofectAMINE PLUS reagent as described by the manufacturer (Invitrogen, Carlsbad, Calif.).
Experiment: HeLa CD4 cells were plated in 96 well plates at a cell density of 1×10^4 cells per well in 100 μl Dulbecco's Modified Eagle Medium containing 10 % fetal Bovine serum and incubated overnight. Compound was added in a 2 μl dimethylsulfoxide solution, so that the final assay concentration would be ≦10 μM. Single-round infectious reporter virus (100 μL) in Dulbecco's Modified Eagle Medium was then added to the plated cells and compound at an approximate multiplicity of infection (MOI) of 0.01, resulting in a final volume of 200 μl per well. Virally-infected cells were incubated at 37 degrees Celsius, in a CO2 incubator, and harvested 72 h after infection. Viral infection was monitored by measuring luciferase expression from viral DNA in the infected cells using a luciferase reporter gene assay kit, as described by the manufacturer (Roche Molecular Biochemicals, Indianapolis, Ind.). Infected cell supernatants were removed and 50 μl of lysis buffer was added per well. After 15 minutes, 50 μl of freshly-reconstituted luciferase assay reagent was added per well. Luciferase activity was then quantified by measuring luminescence using a Wallac microbeta luminescence reader.
The percent inhibition for each compound was calculated by quantifying the level of luciferase expression in cells infected in the presence of each compound as a percentage of that observed for cells infected in the absence of compound and subtracting such a determined value from 100. The effective concentration for fifty percent inhibition (EC50) was calculated with Microsoft Excel Xlfit curve fitting software. For each compound, curves were generated from percent inhibition calculated at 10 different concentrations by using a four paramenter logistic model (model 205).

Row | Structure (SMILES) | EC50 [µM]
1 | C[C@@H]1CN(C(=O)c2ccccc2)CCN1C(=O)C(C#N)c1nc2ccccc2s1 (stereo partly drawn) [Example 1, (R)-N-(benzoyl)-3-methyl-N′-[(benzothiazol-2-yl)-2-cyanoacetyl]-piperazine] | < 1
2 | C[C@@H]1CN(C(=O)c2ccccc2)CCN1C(=O)C(=O)c1nc2ccccc2s1 [Example 2, (R)-N-(benzoyl)-3-methyl-N′-[(benzothiazol-2-yl)-2-oxoacetyl]-piperazine] | < 1
3 | C[C@@H]1CN(C(=O)c2ccccc2)CCN1C(=O)C(=O)c1ccc2scnc2c1 [Example 4, (R)-N-(benzoyl)-3-methyl-N′-[(benzothiazol-5-yl)-2-oxoacetyl]piperazine] | < 1
4 | C[C@@H]1CN(C(=O)c2ccccc2)CCN1C(=O)C(=O)c1ccc2sc(-n3cccc3)nc2c1 [Example 7] | < 1
5 | C[C@@H]1CN(C(=O)c2ccccc2)CCN1C(=O)C(=O)c1ccc2sc(N)nc2c1 [Example 8] | < 1
